From patent US10710978B2, “STK4 inhibitors for treatment of hematologic malignancies” (Dana-Farber Cancer Institute, Inc., priority 2015, dated 2020)

Columns and labels:
STK24 (MST3) = STK24 (MST3) (Homo sapiens (Human), UniProt Q9Y6E0); test: Z-lyte biochemical IC50 assay (Invitrogen); details: ATP concentration matched the Km
Description: (§1) STK4 (MST1), STK3 (MST2); STK24 (MST3) and MST4 Assays
(§2) Biochemical IC50s were measured at Invitrogen using Z-lyte technology. Briefly, for STK4, the 2×STK4 (MST1)/Ser/Thr 07 mixture was prepared in 50 mM HEPES pH 7.5, 0.01% BRIJ35, 10 mM MgCl2, 1 mM EGTA. The final 10 μL Kinase Reaction consisted of 6.25-160 ng STK4 (MST1) and 2 μM Ser/Thr 07 in 50 mM HEPES pH 7.5, 0.01% BRIJ-35, 10 mM MgCl2, 1 mM EGTA. After the 1 hour Kinase Reaction incubation, 5 μL of a 1:100000 dilution of Development Reagent A was added. Compounds were screened in a 10 point titration with 3-fold serial dilutions starting at a concentration of 10 μM. The biochemical IC50s against other STK family members were measured similarly. The ATP concentration used matched the Km for each kinase.

STK4 (MST1) = STK4 (MST1) (Homo sapiens (Human), UniProt Q13043); test: Z-lyte biochemical IC50 assay (Invitrogen); details: ATP concentration matched the Km
STK4 (MST1), sequence (Q13043 whole entry): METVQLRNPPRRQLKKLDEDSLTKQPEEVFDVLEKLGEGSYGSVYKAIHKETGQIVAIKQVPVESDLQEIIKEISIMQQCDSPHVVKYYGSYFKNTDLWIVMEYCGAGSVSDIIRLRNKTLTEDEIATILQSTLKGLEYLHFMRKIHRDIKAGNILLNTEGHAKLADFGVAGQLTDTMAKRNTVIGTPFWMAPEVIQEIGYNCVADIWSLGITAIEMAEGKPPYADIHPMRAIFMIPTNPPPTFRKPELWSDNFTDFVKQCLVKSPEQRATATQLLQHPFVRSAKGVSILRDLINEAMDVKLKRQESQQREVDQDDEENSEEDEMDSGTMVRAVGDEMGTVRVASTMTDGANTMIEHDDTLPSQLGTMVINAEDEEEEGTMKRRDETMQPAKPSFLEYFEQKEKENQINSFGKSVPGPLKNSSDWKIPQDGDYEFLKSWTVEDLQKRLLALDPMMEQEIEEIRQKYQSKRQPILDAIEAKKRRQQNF
Description: as §1, §2

STK24 (MST3), sequence (Q9Y6E0 whole entry): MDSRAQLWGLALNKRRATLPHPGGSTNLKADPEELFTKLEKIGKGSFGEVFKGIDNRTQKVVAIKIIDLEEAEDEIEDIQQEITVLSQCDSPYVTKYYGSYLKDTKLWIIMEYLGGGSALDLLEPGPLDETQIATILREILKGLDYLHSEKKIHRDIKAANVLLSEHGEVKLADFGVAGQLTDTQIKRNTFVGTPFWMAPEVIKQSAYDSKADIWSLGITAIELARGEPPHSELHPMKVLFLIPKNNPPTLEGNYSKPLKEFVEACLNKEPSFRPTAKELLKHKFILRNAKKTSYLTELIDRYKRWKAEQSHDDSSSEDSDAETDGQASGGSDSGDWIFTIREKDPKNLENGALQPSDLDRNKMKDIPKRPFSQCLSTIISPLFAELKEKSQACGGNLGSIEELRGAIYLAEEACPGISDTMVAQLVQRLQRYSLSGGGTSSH

**Q.** Which IC50 (STK24 (MST3)) does the source give for `Nc1ncc(-c2cc([N+](=O)[O-])ccc2F)cc1-c1ccc2c(c1)CCNC2=O` [Compound I-1, 6-(2-amino-5-(2-fluoro-5-nitrophenyl)pyridin-3-yl)-3,4-dihydroisoquinolin-1(2H)-one] here?
**A.** > 900 nM

**Q.** And the IC50 (STK4 (MST1))?
**A.** < 40 nM
